Laboratory results as given in patent US6689807B1, “HMG CoA reductase inhibitors for promoting angiogenesis” (priority 2000, dated 2004).

Key:
VEGF = details: cultured primary endothelial cells; cited from earlier work
[1] = test system: tumor-induced blood-vessel formation; details: mouse model of tumor-cell induced angiogenesis; cited from earlier work
Akt = Akt serine 473 phosphorylation, western immunoblot in HUVEC; format: cell-based, human
HUVEC = assay: Apoptosis assays in serum-free HUVEC (Annexin-V/propidium iodide, Hoechst 33342 pyknotic nuclei); format: cell-based, human; details: serum-free media
Description: HUVEC cultures were plated on chamber slides at a density of 4×10^4 cells/well. […] Parallel cultures were infected with an adenoviral construct expressing dominant-negative Akt (dnAKT) 24 hours prior to the change to serum-free media.
Data are shown as the mean ±S.E.M. (n=4-6, *p<0.05).
Fluorescence-labeled Annexin-V-FLUOS staining of HUVEC was performed according to manufacturer's instructions (Roche Molecular Biochemicals). Briefly, cells were plated on to chamber slides (Nunc) and placed in EBM for 3 hours. […] For detection of pyknotic nuclei, cells were stained with Hoechst 33342. […] Infection with adenovirus encoding dominant-negative Aktl was initiated 24 hours prior to incubation in EBM media.

[2] = test system: bovine aortic endothelial cells; assay: NO release from endothelial cells (chemiluminescence); format: cell-based; details: BAEC
Description: Nitric oxide release was measured in the cell supernatant by chemiluminescent detection of […] (NO2^−), the stable breakdown product of NO. […] In some samples, wortmannin was added 1 hour prior to stimulation. Cell supernatants were collected, deproteinized, and refluxed in glacial acetic acid containing sodium iodide. Processed specimens were measured with a NO analyzer (Sievers).

ischemic hindlimb = assay: Limb revascularization studies after unilateral femoral artery resection; format: in vivo; details: rabbit, simvastatin 0.1 mg/kg daily i.p., 40 days
Description: Male New Zealand white rabbits weighing 3.0 to 3.5 kg were utilized to examine the effects of Akt-signaling and simvastatin-mediated stimulation of vessel growth. For the infusion model, the left femoral artery and major side branches were excised from their proximal origin to within 2 cm of the bifurcation into the saphenous and popliteal arteries. After 10 days, to permit postoperative recovery, the distal femoral artery was re-exposed and, after temporary clamping inflow veins, 50 ml of saline, saline with 3.5×10^10 viral particles of Ad-βgal, or saline with 3.5×10^10 viral particles of Ad-myrAkt was infused via the distal femoral artery and incubated for 15 minutes. […] The remainder of the animals (n=6 per experimental group) were analyzed for limb revascularization at 31 days after femoral artery resection. […] Animals in these groups (n=6 each) were analyzed for limb revascularization 40 days after surgery. Calf blood pressure was measured in both limbs by Doppler flow meter (model 1059, Parks Medical Electronics, Aloha, Oreg.). […] Collateral arteries were evaluated by internal iliac angiography. […] Nonionic contrast media (Isovue-370, Squibb Diagnostics, New Brunswick, N.J.) was injected at a rate of 1 ml/sec and serial images of the ischemic hindlimb were recorded at a rate of 1 film/sec for 10 seconds. […] Angiographic luminal diameter (d) was determined from the angiograms. […]

eNOS = assay: Phosphorylation of endogenous eNOS in vivo (32P-orthophosphate labelled HUVEC); format: cell-based, human; details: simvastatin 1 μM or VEGF 100 ng/ml, 30 min
Description: Alternatively, HUVEC were infected with adenovirus expressing constitutively-active Akt (myrAkt) 24 hours prior to radiolabeling and assayed for endogenous eNOS phosphorylation in the absence of Akt agonist. […] Endogenous eNOS protein was immunoprecipitated, separated by SDS-PAGE, and its phosphorylation was visualized by autoradiography. c, COS-7 cells co-transfected with eNOS (wt: wildtype eNOS, S1179A: serine 1179 mutant) and Akt (HA-Akt) expression plasmids. […] Immunoprecipitates of wild-type or mutant eNOS were examined for ^32P-phosphate incorporation by autoradiography following SDS-PAGE.
The lysate was subjected to immunoprecipitation using mouse monoclonal anti-eNOS antibody (Transduction Laboratories). Radiolabeled phosphate incorporation into each protein was visualized after SDS-PAGE (7.5%) by autoradiography.

Which “induction of VEGF expression” value (VEGF) does the source give for CC[C@H](C)C(=O)O[C@H]1CCC=C2C=C[C@H](C)[C@H](CC[C@@H]3C[C@@H](O)CC(=O)O3)[C@H]21 [mevastatin] here?
The value was “completely blocked”.

With CC[C@H](C)C(=O)O[C@H]1C[C@@H](C)C=C2C=C[C@H](C)[C@H](CC[C@@H]3C[C@@H](O)CC(=O)O3)[C@H]21 [lovastatin] as the compound, how does the tumor-induced blood-vessel formation [1] read?
The tumor-induced blood-vessel formation was “no angiostatic effects”.

What does the source list for CC(O)(CCO)CC(=O)O [mevalonate, L-mevalonate]?
total Akt or eNOS protein levels (Akt; HUVEC): no effect; effect on simvastatin-induced Akt phosphorylation (Akt; HUVEC pretreated 1 hour (mevalonate 200 μM, wortmannin 500 nM, LY294002 10 μM), then 1 μM simvastatin 30 minutes): blocked; effect on VEGF-induced Akt phosphorylation (Akt; HUVEC, mevalonate 200 μM, 100 ng/ml VEGF): no effect; effect on VEGF-induced endothelial cell survival (HUVEC): no effect; effect on statin-induced endothelial cell survival (HUVEC): blocked; effect on survival in the absence of statin or VEGF stimulation (HUVEC): no detectable effect

Which results are given for COC[C@H]1OC(=O)c2coc3c2[C@@]1(C)C1=C(C3=O)[C@@H]2CCC(=O)[C@@]2(C)C[C@H]1OC(C)=O [wortmannin]?
total Akt or eNOS protein levels (Akt; HUVEC): no effect; simvastatin-stimulated NO release with wortmannin treatment ([2]; wortmannin added 1 hour prior to simvastatin): 0.26±0.05 nmol NO2^−/ml; basal NO synthesis with wortmannin treatment ([2]; wortmannin, no simvastatin): 0.29±0.07 nmol NO2^−/ml

For O=c1cc(N2CCOCC2)oc2c(-c3ccccc3)cccc12 [LY294002], which “total Akt or eNOS protein levels” value (Akt; HUVEC) is on record?
The value was “no effect”.

What does the source list for CCC(C)(C)C(=O)O[C@H]1C[C@@H](C)C=C2C=C[C@H](C)[C@H](CC[C@@H]3C[C@@H](O)CC(=O)O3)[C@H]21 [simvastatin]?
simvastatin concentration at which maximal Akt phosphorylation occurs (Akt; HUVEC, serine 473, within 30 minutes): 1.0 µM; capillary density in adductor muscle (ischemic hindlimb): 253±23 capillaries/mm^2; Doppler flow (ischemic hindlimb; maximal flow after papaverine): 46.6 ± 3.0 mL/min; NO release ([2]; simvastatin 1 hour): 0.48±0.07 nmol NO2^−/ml

Which results are given for VEGF?
phosphate incorporation in endogenous eNOS (eNOS): increase; Akt serine 473 phosphorylation (Akt; HUVEC, simvastatin within 30 minutes, VEGF 100 ng/ml): robust activation

Which tumor-induced blood-vessel formation [1] does the source give for TNF-α here?
The tumor-induced blood-vessel formation was “no angiostatic effects”.
